In patent publication US20220396565A1 (Hoffmann-La Roche Inc., priority 2020, published 2022):
Structures can show the parent of a compound that is named as a salt.

System: Acinetobacter baumannii ATCC17961
Experiment: Antimicrobial susceptibility testing: 90% growth inhibitory concentration (IC90) determination, Iso-Sensitest broth
Type: cell-based
Details: 90% growth inhibitory concentration, Acinetobacter baumannii ATCC17961, Iso-Sensitest broth; read-out: ATCC 17961 IC90
Procedure, shortened: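 Growth at OD600 was monitored every 20 min for 16 h at 35±2 °C, with bacteria inoculated at ~5×10^(5) CFU/ml into Iso-Sensitest medium. Compounds were tested as 10-point twofold dilutions (e.g. 10–0.02 μM final). The 90% inhibitory concentration comes from the log-phase growth.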

Q: How did the IC90 turn out when COc1ccc(-c2cnc(C(=O)Nc3ccc(C(=O)N4CCN(C(=O)C5CCN(S(=O)(=O)CCN)CC5)CC4)c(Cl)c3)n2C)c(F)c1F [Example 242, N-[4-[4-[1-(2-aminoethylsulfonyl)pipe-ridine-4-carbonyl]piperazine-1-carbonyl]-3-chloro-phenyl]-5-(2,3-difluoro-4-methoxy-phenyl)-1-methyl-imidazole-2-carboxamide] was run?
A: The IC90 was 90 nM.

Same assay, conditions: Acinetobacter baumannii, ATCC17961, 90% growth inhibitory concentration, Acinetobacter baumannii ATCC17961, Iso-Sensitest broth; read-out: ATCC 17961 IC90

Q: For COc1ccc(-c2cnc(C(=O)Nc3ccc(C(=O)N4CCN(S(C)(=O)=O)CC4)c(Cl)c3)n2C)c(F)c1F [Example 240, N-[3-chloro-4-(4-methylsulfonylpiperazine-1-carbonyl)phenyl]-5-(2,3-difluoro-4-methoxy-phenyl)-1-methyl-imidazole-2-carboxamide], which IC90 is on record?
A: Its IC90 is 320 nM.

Q: For COc1ccc(-c2cnc(C(=O)Nc3ccc(C(=O)N4CCN(S(=O)(=O)C5CCNC5)CC4)c(Cl)c3)n2C)c(F)c1F (stereo not drawn) [Example 241, N-[3-chloro-4-(4-pyrrolidin-3-ylsulfonylpiperazine-1-carbonyl)phenyl]-5-(2,3-difluoro-4-methoxy-phenyl)-1-methyl-imidazole-2-carboxamide], which IC90 is on record?
A: Its IC90 is 150 nM.

Q: How did the IC90 turn out when COc1ccc(-c2cnc(C(=O)Nc3ccc(C(=O)N4CCN(CC(N)=O)CC4)c(Cl)c3)n2C)c(F)c1F [Example 244, N-[4-[4-(2-amino-2-oxo-ethyl)piperazine-1-carbonyl]-3-chloro-phenyl]-5-(2,3-difluoro-4-methoxy-phenyl)-1-methyl-imidazole-2-carboxamide] was run?
A: The IC90 was 100 nM.

Q: For COc1ccc(-c2cnc(C(=O)Nc3ccc(C(=O)N4CCN(C(=O)CCOCCN)CC4)c(Cl)c3)n2C)c(F)c1F [Example 246, N-[4-[4-[3-(2-aminoethoxy)propanoyl]piperazine-1-carbonyl]-3-chloro-phenyl]-5-(2,3-difluoro-4-methoxy-phenyl)-1-methyl-imidazole-2-carboxamide formate], which IC90 is on record?
A: The IC90 was 100 nM.

Q: With Cn1c(-c2ccc(OCF)c(Cl)c2F)cnc1C(=O)Nc1ccc(C(=O)N2CCN(C(=O)[C@@H]3C[C@@H](O)CN3)CC2)c(Cl)c1 [Example 247, 5-[3-chloro-2-fluoro-4-(fluoromethoxy)phenyl]-N-[3-chloro-4-[4-[(2S,4R)-4-hydroxypyrrolidine-2-carbonyl]piperazine-1-carbonyl]phenyl]-1-methyl-imidazole-2-carboxamide] as the molecule, how does the IC90 read?
A: Its IC90 is 30 nM.

Q: Which IC90 does the source give for Cc1cc(NC(=O)c2ncc(-c3ccc(OCF)c(Cl)c3F)n2C)ccc1C(=O)N1CCN(C(=O)[C@@H]2C[C@@H](O)CN2)CC1 [Example 248, 5-[3-chloro-2-fluoro-4-(fluoromethoxy)phenyl]-N-[4-[4-[(2S,4R)-4-hydroxypyrrolidine-2-carbonyl]piperazine-1-carbonyl]-3-methyl-phenyl]-1-methyl-imidazole-2-carboxamide] here?
A: Its IC90 is 50 nM.

Q: With Cn1c(-c2ccc(OC(F)F)c(F)c2F)cnc1C(=O)Nc1ccc(C(=O)N2CCN(C(=O)C3CCNCC3)CC2)c(Cl)c1 [Example 249, N-[3-chloro-4-[4-(piperidine-4-carbonyl)piperazine-1-carbonyl]phenyl]-5-[4-(difluoromethoxy)-2,3-difluoro-phenyl]-1-methyl-imidazole-2-carboxamide formate] as the molecule, how does the IC90 read?
A: The IC90 was 30 nM.

Q: How did the IC90 turn out when COc1ccc(-c2cnc(C(=O)Nc3ccc(C(=O)N4CCC(C(=O)NC5CNC5)CC4)c(Cl)c3)n2C)c(F)c1F [Example 250, N-(azetidin-3-yl)-1-[2-chloro-4-[[5-(2,3-difluoro-4-methoxy-phenyl)-1-methyl-imidazole-2-carbonyl]amino]benzoyl] piperidine-4-carboxamide trifluoroacetate] was run?
A: The IC90 was 80 nM.

Q: Which IC90 does the source give for Cn1c(-c2ccc(OCC#N)c(F)c2Cl)cnc1C(=O)Nc1ccc(C(=O)N2CCN(C(=O)C3(O)CCNCC3)CC2)c(Cl)c1 [Example 251, 5-[2-chloro-4-(cyanomethoxy)-3-fluoro-phenyl]-N-[3-chloro-4-[4-(4-hydroxypiperidine-4-carbonyl)piperazine-1-carbonyl]phenyl]-1-methyl-imidazole-2-carboxamide formate] here?
A: The IC90 was 50 nM.

Q: How did the IC90 turn out when Cn1c(-c2ccc(OCC#N)c(F)c2Cl)cnc1C(=O)Nc1ccc(C(=O)N2CCN(C(=O)C3CCNCC3)CC2)c(Cl)c1 [Example 252, 5-[2-chloro-4-(cyanomethoxy)-3-fluoro-phenyl]-N-[3-chloro-4-[4-(piperidine-4-carbonyl)piperazine-1-carbonyl]phenyl]-1-methyl-imidazole-2-carboxamide formate] was run?
A: The IC90 was 60 nM.

Q: Which IC90 does the source give for Cn1c(-c2ccc(OCC#N)c(F)c2Cl)cnc1C(=O)Nc1ccc(C(=O)N2CCN(C(=O)[C@H]3CCNC3)CC2)c(Cl)c1 [Example 253, 5-[2-chloro-4-(cyanomethoxy)-3-fluoro-phenyl]-N-[3-chloro-4-[4-[(3S)-pyrrolidine-3-carbonyl]piperazine-1-carbonyl]phenyl]-1-methyl-imidazole-2-carboxamide formate] here?
A: Its IC90 is 50 nM.

Q: Cn1c(-c2ccc(OCC#N)c(F)c2Cl)cnc1C(=O)Nc1ccc(C(=O)N2CCN(C(=O)[C@@H]3CCNC3)CC2)c(Cl)c1 [Example 254, 5-[2-chloro-4-(cyanomethoxy)-3-fluoro-phenyl]-N-[3-chloro-4-[4-[(3R)-pyrrolidine-3-carbonyl]piperazine-1-carbonyl]phenyl]-1-methyl-imidazole-2-carboxamide formate] was tested. Which IC90 did it give?
A: The IC90 was 40 nM.

Q: Which IC90 does the source give for COCCOc1ccc(-c2cnc(C(=O)Nc3ccc(C(=O)N4CCN(C(=O)C5CCNCC5)CC4)c(Cl)c3)n2C)c(F)c1F [Example 255, N-[3-chloro-4-[4-(piperidine-4-carbonyl)piperazine-1-carbonyl]phenyl]-5-[2,3-difluoro-4-(2-methoxyethoxy)phenyl]-1-methyl-imidazole-2-carboxamide formate] here?
A: Its IC90 is 590 nM.

Q: With Cn1c(-c2ccc(CC#N)cc2F)cnc1C(=O)Nc1ccc(C(=O)N2CCN(C(=O)C3CCNCC3)CC2)c(Cl)c1 [Example 256, N-[3-chloro-4-[4-(piperidine-4-carbonyl)piperazine-1-carbonyl]phenyl]-5-[4-(cyanomethyl)-2-fluoro-phenyl]-1-methyl-imidazole-2-carboxamide formate] as the molecule, how does the IC90 read?
A: Its IC90 is 8700 nM.

Q: How did the IC90 turn out when COc1ccc(-c2cnc(C(=O)Nc3ccc(C(=O)N4CCN(C(=O)C5CCNCC5)CC4)c(Cl)c3)n2C)c(F)c1OC [Example 257, N-[3-chloro-4-[4-(piperidine-4-carbonyl)piperazine-1-carbonyl]phenyl]-5-(2-fluoro-3,4-dimethoxy-phenyl)-1-methyl-imidazole-2-carboxamide formate] was run?
A: The IC90 was 230 nM.

Q: How did the IC90 turn out when COc1cc(-c2cnc(C(=O)Nc3ccc(C(=O)N4CCN(C(=O)C5CCNCC5)CC4)c(Cl)c3)n2C)cc(F)c1F [Example 258, N-[3-chloro-4-[4-(piperidine-4-carbonyl)piperazine-1-carbonyl]phenyl]-5-(3,4-difluoro-5-methoxy-phenyl)-1-methyl-imidazole-2-carboxamide formate] was run?
A: The IC90 was 1120 nM.

Same assay, conditions: Acinetobacter baumannii, ATCC17961, read-out: ATCC 17961 IC90

Q: With Cn1c(-c2ccc(OC(F)F)c(F)c2F)cnc1C(=O)Nc1ccc(C(=O)N2CCC(C(=O)NCC3CNC3)CC2)c(Cl)c1 [Example 245, N-(Azetidin-3-ylmethyl)-1-[2-chloro-4-[[5-[4-(difluoromethoxy)-2,3-difluoro-phenyl]-1-methyl-imidazole-2-carbonyl]amino]benzoyl]piperidine-4-carboxamide trifluoroacetate] as the molecule, how does the IC90 read?
A: The IC90 was 30 nM.
